Test results from patent US11331299B2, “Medicinal use of serrulatane diterpenes” (The University of Sydney, priority 2016, dated 2022).
Where two headings read alike, the source gives them in different places.

Tested on: 280 human cancer cell lines
Assay: OncoPanel cell proliferation assay (10-day)
Format: cell-based
Conditions: for EC50: read-out: Cell Count EC50; for IC50: read-out: Cell Count IC50
[1] = Homo sapiens, 22Rv1, 22Rv1, Prostate
[2] = Homo sapiens, 786-0, 786-O, Kidney
[3] = Homo sapiens, A7, Skin (Melanoma)
[4] = Homo sapiens, A101D, Skin (Melanoma)
[5] = Homo sapiens, A 172, A172, CNS - Glioma
[6] = Homo sapiens, A253, A-253, Head and Neck
[7] = Homo sapiens, A388, Head and Neck
[8] = Homo sapiens, A498, A498, Kidney
[9] = Homo sapiens, A549, A549, Lung - NSCLC
[10] = Homo sapiens, A673, A-673, Soft Tissue - Sarcoma
[11] = Homo sapiens, A704, A-704, Kidney
[12] = Homo sapiens, A-375, A375, Skin (Melanoma)
[13] = Homo sapiens, A-427, A427, Lung - NSCLC
[14] = Homo sapiens, A-431, A431, Head and Neck
[15] = Homo sapiens, AN3-CA, AN3 CA, Female GU - Uterus
[16] = Homo sapiens, ARH-77, ARH-77, Myeloma
[17] = Homo sapiens, ASPC1, AsPC-1, Pancreas
[18] = Homo sapiens, AU565, AU565, Breast
[19] = Homo sapiens, BCP-1, BCP-1, Lymphoma
[20] = Homo sapiens, BE(2)-C, BE(2)C, CNS - Neuroblastoma
[21] = Homo sapiens, BFTC-905, BFTC-905, Bladder
[22] = Homo sapiens, BHT-101, BHT-101, Endocrine - Thyroid
[23] = Homo sapiens, BM-1604, BM-1604, Prostate
[24] = Homo sapiens, BPH-1, BPH1, Prostate
[25] = Homo sapiens, BT-20, BT20, Breast

`CC(C)=CCC[C@H](C)[C@@H]1CC[C@@H](C)c2c1cc(C)c(O)c2O` [Compound 4, 7,8-dihydroxyserrulat-14-ene] was tested, and the “Number of cell types, GI Activity Potent” value (GI50 range 0.03-0.099 μM, of 280 cell types) was 0, the “Number of cell types, GI Activity moderately potent” value (GI50 range 0.1-0.99 μM, of 280 cell types) was 1 and the “Number of cell types, GI Activity Strong” value (GI50 range 1-2.99 μM, of 280 cell types) was 11. For the same compound, the “Number of cell types, GI Activity moderately strong” value (GI50 range 3-9.99 μM, of 280 cell types) was 125, the “Number of cell types, GI Activity weak” value (GI50 range 10-30.00 μM, of 280 cell types) was 130 and the “Number of cell types, GI Activity very weak” value (GI50 range >30 μM, of 280 cell types) was 13. For the same compound, the GI50 (Homo sapiens, 12 cell lines with moderately potent to strong activity, read-out: GI50) was 0.68 to 2.92 µM, the EC50 [1] was 9.08 µM and the GI50 (Homo sapiens, 22Rv1, 22Rv1, Prostate, read-out: Cell Count GI50) was 9 µM. For the same compound, the IC50 [1] was 9.08 µM, the EC50 (Homo sapiens, 647-V, Bladder) was 5.99 µM and the GI50 (Homo sapiens, 647-V, Bladder, read-out: Cell Count GI50) was 5.99 µM. It also gave an IC50 (Homo sapiens, 647-V, Bladder) of 6 µM, an EC50 (Homo sapiens, 769-P, Kidney) of 3.72 µM and a GI50 (Homo sapiens, 769-P, Kidney, read-out: Cell Count GI50) of 3.71 µM. The IC50 (Homo sapiens, 769-P, Kidney) was 3.72 µM, the EC50 [2] was 14 µM and the GI50 (Homo sapiens, 786-0, 786-O, Kidney, read-out: Cell Count GI50) was 13.9 µM. It also gave an IC50 [2] of 14 µM, an EC50 (Homo sapiens, 5637, Bladder) of 15.2 µM and a GI50 (Homo sapiens, 5637, Bladder, read-out: Cell Count GI50) of 15.1 µM. The IC50 (Homo sapiens, 5637, Bladder) was 15.2 µM, the EC50 [3] was 10.5 µM and the GI50 (Homo sapiens, A7, Skin (Melanoma), read-out: Cell Count GI50) was 10.5 µM. The IC50 [3] was 10.5 µM, the EC50 [4] was greater than 30 µM and the GI50 (Homo sapiens, A101D, Skin (Melanoma), read-out: Cell Count GI50) was greater than 30 µM. It also gave an IC50 [4] greater than 30 µM, an EC50 [5] of 8.08 µM and a GI50 (Homo sapiens, A 172, A172, CNS - Glioma, read-out: Cell Count GI50) of 8.03 µM. The IC50 [5] was 8.08 µM, the EC50 [6] was 18.2 µM and the GI50 (Homo sapiens, A253, A-253, Head and Neck, read-out: Cell Count GI50) was 18.1 µM. It also gave an IC50 [6] of 18.2 µM, an EC50 [7] of 7.66 µM and a GI50 (Homo sapiens, A388, Head and Neck, read-out: Cell Count GI50) of 7.59 µM. It also gave an IC50 [7] of 7.66 µM, an EC50 [8] of 12.3 µM and a GI50 (Homo sapiens, A498, A498, Kidney, read-out: Cell Count GI50) of 12.2 µM. The IC50 [8] was 12.3 µM, the EC50 [9] was 10.9 µM and the GI50 (Homo sapiens, A549, A549, Lung - NSCLC, read-out: Cell Count GI50) was 10.8 µM. For the same compound, the IC50 [9] was 10.9 µM, the EC50 [10] was 2.88 µM and the GI50 (Homo sapiens, A673, A-673, Soft Tissue - Sarcoma, read-out: Cell Count GI50) was 2.87 µM. For the same compound, the IC50 [10] was 2.88 µM, the EC50 [11] was 5.7 µM and the GI50 (Homo sapiens, A704, A-704, Kidney, read-out: Cell Count GI50) was 5.41 µM. It also gave an IC50 [11] of 5.7 µM, an EC50 [12] of 5.74 µM and a GI50 (Homo sapiens, A-375, A375, Skin (Melanoma), read-out: Cell Count GI50) of 5.74 µM. The IC50 [12] was 5.74 µM, the EC50 [13] was 10 µM and the GI50 (Homo sapiens, A-427, A427, Lung - NSCLC, read-out: Cell Count GI50) was 9.98 µM. It also gave an IC50 [13] of 10 µM, an EC50 [14] of 24.8 µM and a GI50 (Homo sapiens, A-431, A431, Head and Neck, read-out: Cell Count GI50) of 24.8 µM. The IC50 [14] was 24.8 µM, the EC50 (Homo sapiens, ACHN, Kidney) was 9.5 µM and the GI50 (Homo sapiens, ACHN, Kidney, read-out: Cell Count GI50) was 9.47 µM. For the same compound, the IC50 (Homo sapiens, ACHN, Kidney) was 9.5 µM, the EC50 (Homo sapiens, AGS, Stomach) was 5.25 µM and the GI50 (Homo sapiens, AGS, Stomach, read-out: Cell Count GI50) was 5.24 µM. It also gave an IC50 (Homo sapiens, AGS, Stomach) of 5.25 µM, an EC50 [15] of 9.62 µM and a GI50 (Homo sapiens, AN3-CA, AN3 CA, Female GU - Uterus, read-out: Cell Count GI50) of 9.43 µM. For the same compound, the IC50 [15] was 9.62 µM, the EC50 [16] was 13.5 µM and the GI50 (Homo sapiens, ARH-77, ARH-77, Myeloma, read-out: Cell Count GI50) was 13.4 µM. It also gave an IC50 [16] of 13.5 µM, an EC50 [17] of 14.7 µM and a GI50 (Homo sapiens, ASPC1, AsPC-1, Pancreas, read-out: Cell Count GI50) of 14.5 µM. For the same compound, the IC50 [17] was 14.7 µM, the EC50 [18] was 10.1 µM and the GI50 (Homo sapiens, AU565, AU565, Breast, read-out: Cell Count GI50) was 10 µM. The IC50 [18] was 10.1 µM, the EC50 (Homo sapiens, BC-1, Lymphoma) was 4.16 µM and the GI50 (Homo sapiens, BC-1, Lymphoma, read-out: Cell Count GI50) was 4.16 µM. For the same compound, the IC50 (Homo sapiens, BC-1, Lymphoma) was 4.16 µM, the EC50 [19] was 8.82 µM and the GI50 (Homo sapiens, BCP-1, BCP-1, Lymphoma, read-out: Cell Count GI50) was 8.75 µM. For the same compound, the IC50 [19] was 8.82 µM, the EC50 [20] was 13.1 µM and the GI50 (Homo sapiens, BE(2)-C, BE(2)C, CNS - Neuroblastoma, read-out: Cell Count GI50) was 13 µM. For the same compound, the IC50 [20] was 13.1 µM, the EC50 [21] was 9.7 µM and the GI50 (Homo sapiens, BFTC-905, BFTC-905, Bladder, read-out: Cell Count GI50) was 9.68 µM. The IC50 [21] was 9.7 µM, the EC50 [22] was 6.8 µM and the GI50 (Homo sapiens, BHT-101, BHT-101, Endocrine - Thyroid, read-out: Cell Count GI50) was 6.77 µM. It also gave an IC50 [22] of 6.8 µM, an EC50 [23] greater than 30 µM and a GI50 (Homo sapiens, BM-1604, BM-1604, Prostate, read-out: Cell Count GI50) greater than 30 µM. For the same compound, the IC50 [23] was greater than 30 µM, the EC50 [24] was 17.3 µM and the GI50 (Homo sapiens, BPH-1, BPH1, Prostate, read-out: Cell Count GI50) was 17.3 µM. It also gave an IC50 [24] of 17.3 µM, an EC50 [25] of 14.1 µM and a GI50 (Homo sapiens, BT-20, BT20, Breast, read-out: Cell Count GI50) of 13.9 µM. For the same compound, the IC50 [25] was 14.3 µM and the EC50 (Homo sapiens, BT-474, BT474, Breast) was 25.5 µM.
